Data taken from patent publication US9233912B2, “Devices and methods for crystallization” (Massachusetts Institute of Technology, priority 2013, dated 2016).
Like-named read-outs stand apart in the source and are kept apart here. Values belong to the molecule of their own block, whether it stands above or below them.

Columns and labels:
[1] = w/w = g chemical/g solution; cited from earlier work
[2] = Nucleator only experiments, in-line FBRM chord length distribution; type: physicochemical; settings: FBRM at nucleator outlet, residence time 7.4 s and 10.3 s
Excerpt: In some embodiments, Focused Beam Reflectance Measurement (FBRM) or similar technique may be used to obtain characteristic size information. FBRM, in some embodiments, provides an ability to measure objects (e.g., crystals) in suspensions, e.g., at full process concentration, without the need for sample extraction and sample preparation. In some embodiments, FBRM method of measurement may be used which is based on a measurement of Chord Length Distribution that simultaneously tracks the rate and degree of change in particle count and mean chord length. As used herein, the term “chord length” refers to the length of a line segment passing across a portion of a projection of an object on a two-dimensional plane, and whose end points lie on the edge of the projection. The term “mean chord length” refers to the mean length of multiple chords, e.g., multiple randomly orientated chords. Methods for measuring mean particle count and mean chord length are well known in the art. See, […]. Particle Size Measurements: Fundamentals, Practice, Quality. […] Copyright 2009 Springer Science+Business Media B.V., and references cited therein.

[3] = Integrated nucleator-tubular crystallizer experiment, crystal size by microscopic analysis; type: physicochemical
Protocol: (§1) To perform the analysis, a drop of solution or 1 mg of crystals dispersed in a few drops of mineral oil was first imaged using a 5× objective.
These experiments involved connecting the generator to a tubular crystallizer for crystal growth. This integrated nucleator-crystallizer experiment was conducted with a 49 mL tubular coiled crystallizer (Masterflex® L/S®, Chem-Durance® Bio tubing, ID=3.2 mm, Length=20 ft) using 1.54% acetaminophen solution. During the experiment, relatively small crystals generated in the nucleator were pumped into the tubular crystallizer at the same flow rate as the nuclei generator. The small crystals then grew in the crystallizer for a fixed residence time before the crystals were collected by vacuum filtration, as shown in FIG. 2. Two experiments at flow rates of 14.2 and 11.3 mL/min were conducted. The particle size distributions of the crystals were determined by microscopic analysis (Nikon Eclipse ME600).
The nuclei generator can be integrated into crystallization processes in which the production of crystals of specific size distribution is desired (See, e.g., FIGS. 1B, 1C, 2, 12). In some embodiments, with the continuous generation of nuclei, the nucleation and growth events were decoupled. In this case, nucleation was triggered in the nucleator, while growth continued in the crystallizer. Multiple integrated nucleator—tubular crystallizer experiments were conducted that illustrate this process.

[4] = Integrated nucleator-crystallizer (Coflore crystallizer) experiment, crystal size; settings: for d0.1 / d0.5 / d0.9: Integrated nucleator crystallization
[5] = Protocol: as §1
[6] = Seeded Crystallization
Protocol: as §1
A continuous crystallization process with seeding was evaluated for comparison with an integrated nucleator-crystallizer device. A schematic diagram of the seeded crystallization experiment is depicted in FIG. 13. Seed crystals (nuclei) were obtained from antisolvent crystallization of glycine (to generate small crystals). Crystals obtained from antisolvent crystallization were sieved through a series of sieves with openings of 90, 63, and 45 μm. Seeds were collected from the 45 μm sieve.
For the seeded crystallization experiment, the crystallizer was first filled with the feed solution. Once filled, the process was seeded by pumping (50 mL/min) a suspension of 0.05 g seed in 25 mL feed solution into the crystallizer. After seeding, the crystallization process proceeded with continuous input of clear feed solution at 50 mL/min. Glycine crystals were collected by vacuum filtration at the crystallizer outlet. Except for the seeding procedure, the other experimental conditions for the seeded crystallization experiment were kept identical to the integrated nucleator-crystallizer experiment of Example 4.
Feed solution concentration: 24% (20% above saturation)
Residence time in crystallizer (100 mL): 2 min
Crystallizer holding temperature: 28° C.
The data were analyzed with crystals collected between 4-5 residence times (RT) when the device was at steady state.
To investigate the feasibility of the seeded experiment, a second experiment was conducted at lower crystallizer temperature (higher supersaturation that could potentially improve crystal growth rate).

span (D (0.9)-D (0.1)) of chord length distribution [2]: ≈ 20 μm
average growth rate inside the nucleator ([3]; flow rate 11.31 mL/min): 1.47×10^−7 m/s
mean size of crystals leaving the nucleator ([3]; flow rate 11.31 mL/min): 6.7 μm
mean size of crystals after tubular crystallizer ([3]; flow rate 11.31 mL/min, after 4.3 min in the tubular crystallizer): 13.5 μm
average growth rate inside the crystallizer ([3]; flow rate 11.31 mL/min, tubular crystallizer): 2.62×10^−7 m/s
mean size of small crystals produced ([3]; integrated nucleator and tubular crystallizer, FIG. 9): 12 μm
SMILES: CC(=O)Nc1ccc(O)cc1 [Acetaminophen, acetaminophen]
Saturation concentration at 25° C. (Cs) [1]: 1.48^16 % w/w

average size of nuclei upon leaving the nucleator ([4]; 24% solution, 50 mL/min, approx. 10 s in nucleator): 14 μm
average size of crystals from Coflore crystallizer ([4]; 24% solution, 50 mL/min, approx. 2 minutes in crystallizer, 28° C.): 48 μm
d0.1 ([4]; Coflore): 13.9 μm
d0.5 ([4]; Coflore): 34.1 μm
d0.9 ([4]; Coflore): 91.9 μm
d0.1 ([4]; Nucleator): 2.4 μm
d0.5 ([4]; Nucleator): 8.8 μm
d0.9 ([4]; Nucleator): 27.2 μm
size below which 90% of the nuclei lie ([5]; 21% glycine solution, 30 s residence time, nucleator only): less than 12.28 μm
coefficient of variation (CV) of nuclei size ([5]; 21% glycine solution, three residence times): ~1
size of nuclei obtained (mostly) ([5]; 21% glycine solution, three residence times (30 s, 2 min, 3.5 min)): less than 20 μm
mean size of small crystals generated with the nucleator ([5]; glycine experiments, nucleator device): up to 14 μm
d0.1 ([6]; Run 1 (Tcryst = 28° C.)): 6.3 μm
d0.5 ([6]; Run 1 (Tcryst = 28° C.)): 14.6 μm
d0.9 ([6]; Run 1 (Tcryst = 28° C.)): 44.6 μm
d0.1 ([6]; Run 2 (Tcryst = 25° C.)): 7.4 μm
d0.5 ([6]; Run 2 (Tcryst = 25° C.)): 28.8 μm
d0.9 ([6]; Run 2 (Tcryst = 25° C.)): 90.3 μm
d0.1 ([6]; Seed): 2.4 μm
d0.5 ([6]; Seed): 10.3 μm
d0.9 ([6]; Seed): 50.8 μm
SMILES: NCC(=O)O [Glycine, glycine]
Saturation concentration at 25° C. (Cs) [1]: 20^15 % w/w
